Laboratory results taken from patent publication US20170022201A1, “MACROCYLIC PYRIDINE DERIVATIVES” (Janssen Pharmaceutica NV, priority 2014, published 2017).

Key:
EF2K = target: T1, EF2K (Homo sapiens, UniProt O00418); assay: Biochemical EF2K lysate-based kinase assay (AlphaLISA p-eEF2 Thr56); conditions: LN-229 cell lysates, 10 mM ATP, pH 6.6; pIC50 = -log IC50 (M); read-out: eEF2K_C_alphalisa pIC50 (converted)
T1 construct: host or cells: LN-229 glioblastoma cell lysate
T1 sequence (O00418 1-725): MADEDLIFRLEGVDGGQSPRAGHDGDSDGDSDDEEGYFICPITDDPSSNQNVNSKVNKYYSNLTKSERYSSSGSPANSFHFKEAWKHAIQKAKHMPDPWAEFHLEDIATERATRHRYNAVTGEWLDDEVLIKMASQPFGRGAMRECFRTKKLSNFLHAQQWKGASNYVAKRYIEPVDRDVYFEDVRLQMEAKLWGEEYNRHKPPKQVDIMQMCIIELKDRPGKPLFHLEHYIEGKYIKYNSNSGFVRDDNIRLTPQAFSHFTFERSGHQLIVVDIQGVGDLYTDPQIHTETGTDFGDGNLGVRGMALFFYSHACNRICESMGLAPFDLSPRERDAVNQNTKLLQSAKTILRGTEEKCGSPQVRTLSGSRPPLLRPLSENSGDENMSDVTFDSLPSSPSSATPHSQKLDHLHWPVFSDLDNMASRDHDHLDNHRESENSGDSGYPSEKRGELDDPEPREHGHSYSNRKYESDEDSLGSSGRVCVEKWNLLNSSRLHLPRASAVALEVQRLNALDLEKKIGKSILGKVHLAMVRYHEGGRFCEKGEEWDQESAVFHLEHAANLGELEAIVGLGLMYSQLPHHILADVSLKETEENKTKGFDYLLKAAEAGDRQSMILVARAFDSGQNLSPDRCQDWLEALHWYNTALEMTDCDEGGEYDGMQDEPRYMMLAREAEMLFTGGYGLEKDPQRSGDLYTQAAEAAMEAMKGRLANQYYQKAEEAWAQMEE
Description: LN-229 cells were purchased from ATCC (CRL-2611); these are glioblastoma cells. Cell lysates from LN229 were used in this kinase assay to provide both the kinase and the substrate (EF2). The AlphaLISA p-eEF2 (Thr56) detection assay was developed using a sandwich assay format with two specific antibodies recognizing different epitopes of the target, including one antibody against the phosphorylation site of interest. One anti-eEF2 antibody was conjugated onto AlphaLISA Acceptor beads, while the second antibody was biotinylated and captured by streptavidin coated Donor beads.
Compound was mixed with LN-229 cell lysates in the presence of a kinase buffer (e.g. HEPES) at a pH of 6.6, containing 10 mM Mg^2+ (e.g. magnesium acetate) and 10 mM adenosine-tri-phosphate (ATP) and incubated at room temperature for 15 minutes. The kinase reaction was stopped with excess ethylenediaminetetraacetic acid disodium salt and the biotinylated-anti phospho eEF2 antibody (3 nM) was added for 1 hour. Then the anti-EF2 acceptor beads (10 μg/ml) as well as the streptavidin coated donor beads (20 μg/ml) were added for 1 hour, and the AlphaLISA signal was measured in an Envision instrument once, left overnight, and measured again for the final read.

eEF2K = target: T2, eEF2K (Homo sapiens, UniProt O00418); assay: EF2K cell-based assay (P-EF2 AlphaLISA, 2-deoxyglucose stimulated MCF10A cells); conditions: 2.5 mM 2-deoxyglucose 4 h, phosphorylation of EF2 at Thr 56, pIC50 = -log IC50 (M), read-out: eEF2K_C_PThr56 pIC50 (converted)
T2 construct: in the immortalized epithelial breast cell lines, MCF10A; host or cells: MCF10A immortalized breast epithelial cells
T2 sequence (O00418 1-725): T1 sequence (O00418 1-725)
Procedure: In this assay, 2.5 mM 2-deoxyglucose was used to deplete intracellular ATP and activate 5′ adenosine monophosphate-activated protein kinase (AMPK) in the immortalized epithelial breast cell lines, MCF10A. MCF 10A cells were purchased from ATCC (CRL-10317).
MCF10A cells are seeded at a density of 1.25×10^5 Cells/ml at 100 μl/well in a 96-well plate and incubated for 24 hours (37° C., 5% CO2). Compound is added for 1 hour, and cell are stimulated with 2.5 mM of 2-deoxy-glucose for 4 hours. Medium is then removed, and cells are lysed in an ice-cold buffer M-PER (Thermo Scientific, 78501), containing protease and phosphatase inhibitors. P-EF2 levels are determined in these lysates using the P-EF2 AlphaLISA described above.

| IC50 (EF2K) | IC50 (eEF2K) | Compound |
| --- | --- | --- |
| > 3.02e-05 M | ~1e-05 M | CC1NCCNC(=O)CN2CCN(CC2)Cc2cccc(c2)Nc2cc(ccn2)-c2cnc1nc2 (centres unmarked) [Compound 133] |
|  | ~3.63e-06 M | O=C1CN2CCN(CC2)Cc2cccc(c2)Nc2cc(ccn2)-c2ccc(nc2)N2CCCC2CCN1 (centres unmarked) [Compound 141] |
| 1.12e-05 M | > 1e-05 M | CC1NCCNC(=O)CN2CCN(CC2)Cc2cccc(c2)Nc2cc(ccn2)-c2cnc1nc2 (centres unmarked) [Compound 134] |
| 5.75e-06 M | > 1e-05 M | O=C1CN2CCN(CC2)Cc2cccc(c2)Nc2cc(ccn2)-c2cnc(nc2)NC(CC2CC2)CCN1 (centres unmarked) [Compound 125] |
| 3.98e-07 M | 1.05e-06 M | CCCN1CCNC(=O)CN2CCN(CC2)Cc2cccc(c2)Nc2cc(ccn2)-c2ccc(nc2)C1 [Compound 147] |
|  | 5.5e-06 M | NCCCCC1C(=O)NCCCNc2ncc(cn2)-c2ccnc(c2)Nc2cccc(c2)CN2CCN1CC2 (centres unmarked) [Compound 113] |
| ~5.5e-06 M | > 1e-05 M | O=C1CN2CCN(CC2)Cc2cccc(c2)Nc2cc(ccn2)-c2ccc(nc2)CNCCN1 [Compound 145] |
| ~1.58e-06 M |  | O=C1CN2CCN(CC2)Cc2cccc(c2)Nc2cc(ccn2)-c2cnc(nc2)C2CCCN2CCN1 (single isomer, unassigned) [Compound 138] |
| 7.59e-06 M | > 1e-05 M | O=C1CN2CCN(CC2)Cc2cccc(c2)Nc2cc(ccn2)-c2cnc(nc2)C2CCCN2CCN1 (single isomer, unassigned) [Compound 139] |
| 2.69e-05 M | > 1e-05 M | COCCN1CCNC(=O)CN2CCN(CC2)Cc2cccc(c2)Nc2cc(ccn2)-c2cnc(nc2)C1 [Compound 129] |
| 3.55e-07 M | > 1e-05 M | CC(=O)NCCCCC1C(=O)NCCCNc2ncc(cn2)-c2ccnc(c2)Nc2cccc(c2)CN2CCN1CC2 (centres unmarked) [Compound 109] |
| 6.31e-06 M | > 1e-05 M | CC(=O)NCCCOCC1CN2CCN1Cc1cccc(c1)Nc1cc(ccn1)-c1cnc(nc1)NCCCNC(=O)C2 (centres unmarked) [Compound 149] |
| 1.51e-07 M | 4.37e-07 M | CC(=O)NCCCOCC1CN2CCN1Cc1cccc(c1)Nc1cc(ccn1)-c1cnc(nc1)NCCCNC(=O)C2 (centres unmarked) [Compound 115] |

The remaining lines, values behind:

| Compound | IC50 (EF2K) | IC50 (eEF2K) |
| --- | --- | --- |
| O=C1CN2CCCC(CC2)Oc2cccc(c2)Nc2cc(ccn2)-c2cnc(nc2)NCCCN1 (centres unmarked) [Compound 94] | 6.61e-08 M | 6.76e-07 M |
| O=C1CN2CCC(CC2)Oc2cccc(c2)Nc2cc(ccn2)-c2cnc(nc2)N2CC(O)CC2CCN1 (centres unmarked) [Compound 99] | 3.09e-08 M | 1.07e-06 M |
| O=C1NCCC2CC(O)CN2c2ncc(cn2)-c2ccnc(c2)Nc2cccc(c2)OC2CCN(CC2)C12CC2 (centres unmarked) [Compound 97] | 1.82e-09 M | 3.31e-07 M |
| NC1CC2CCNC(=O)C3(CC3)N3CCN(CC3)Cc3cccc(c3)Nc3cc(ccn3)-c3cnc(nc3)N2C1 (centres unmarked) [Compound 85] | 2.75e-08 M | 1.1e-06 M |
| O=C1CN2CCN(CC2)Cc2cccc(c2)Nc2cc(ccn2)-c2cnc(nc2)N2CC(F)CC2CCN1 (centres unmarked) [Compound 80] | 1e-08 M | 6.31e-07 M |
| O=C1NCCCNc2ncc(cn2)-c2ccnc(c2)Nc2cccc(c2F)OC2CCN(CC2)C12CC2 [Compound 89] | ~4.47e-09 M | 3.24e-07 M |
| N#CC1CC2CCNC(=O)C3(CC3)N3CCN(CC3)Cc3cccc(c3)Nc3cc(ccn3)-c3cnc(nc3)N2C1 (centres unmarked) [Compound 79] | 9.77e-08 M | 1.15e-06 M |
| O=C1CN2CCN(CC2)Cc2cccc(c2)Nc2cc(ccn2)-c2cnc(nc2)N2CCC2CCN1 (centres unmarked) [Compound 49] | 2.51e-05 M | > 1e-05 M |
| CN1c2cccc(c2F)Nc2cc(ccn2)-c2cnc(nc2)NCCCNC(=O)C2(CC2)N2CCC1CC2 [Compound 103] | 1.91e-07 M | 1.62e-06 M |
| O=C1CN2CC(C2)Oc2cccc(c2)Nc2cc(ccn2)-c2cnc(nc2)NCCCN1 [Compound 92] | 1.26e-07 M | 1.17e-06 M |
| CC1c2cccc(c2F)Nc2cc(ccn2)-c2cnc(nc2)NCCCNC(=O)C2(CC2)N2CCN1CC2 (single isomer, unassigned) [Compound 12] | 1.45e-07 M | > 1e-05 M |
| CC1c2cccc(c2)Nc2cc(ccn2)-c2cnc(nc2)NCCCNC(=O)C2(CC2)N2CCN1CC2 (single isomer, unassigned) [Compound 22] | ~1.05e-08 M | 3.63e-07 M |
| O=C1NCCC2CC(O)CN2c2ncc(cn2)-c2ccnc(c2)Nc2cccc(c2)CN2CCN(CC2)C12COC2 (centres unmarked) [Compound 64] | 5.13e-09 M | 3.89e-07 M |
| CC1c2cccc(c2F)Nc2cc(ccn2)-c2cnc(nc2)N2CC(O)CC2CCNC(=O)C2(CC2)N2CCN1CC2 (centres unmarked) [Compound 52] | 5.37e-09 M | 7.59e-08 M |
| O=C1NCCC2CC(O)CN2c2ncc(cn2)-c2ccnc(c2)Nc2cccc(c2F)OC2CCN(CC2)C12CC2 (centres unmarked) [Compound 96] | 3.98e-09 M | 8.13e-08 M |
| O=C1CN2CCN(CC2)Cc2cccc(c2)Nc2cc(ccn2)-c2cnc(nc2)N2CC=CC2CCN1 (centres unmarked) [Compound 81] | 4.9e-09 M | 3.09e-07 M |
| O=C1CN2CCC(CC2)Oc2cccc(c2F)Nc2cc(ccn2)-c2cnc(nc2)NCCCN1 [Compound 91] | 1.35e-08 M | 7.24e-07 M |
| O=C1NCCC2CC(O)CN2c2ncc(cn2)-c2ccnc(c2)Nc2cccc(c2)CN2CCN(CC2)C12COC2 (centres unmarked) [Compound 63] | 1.95e-08 M | 1.74e-06 M |
| O=C1CN2CCN(CC2)Cc2cc(ccn2)Nc2cc(ccn2)-c2cnc(nc2)N2CC(O)CC2CCN1 (centres unmarked) [Compound 51] |  | ~1e-05 M |
| CC1c2cccc(c2F)Nc2cc(ccn2)-c2cnc(nc2)NCCCNC(=O)C2(CC2)N2CCN1CC2 (single isomer, unassigned) [Compound 11] | 2.75e-09 M | 2.88e-07 M |
| O=C1NCCCNc2ncc(cn2)-c2ccnc(c2)Nc2cccc(c2)OC2CCN(CC2)C12CC2 [Compound 95] | 6.76e-09 M | ~6.46e-07 M |
| O=C1NCCCNc2ncc(cn2)-c2ccnc(c2)Nc2cccc(c2F)CN2CCN(CC2)C12CC2 [Compound 20] | 3.98e-09 M | 1.66e-07 M |
| O=C1CN2CCN(CC2)Cc2cc(ccc2F)Nc2cc(ccn2)-c2cnc(nc2)N2CC(O)CC2CCN1 (centres unmarked) [Compound 50] | 1.02e-08 M | 3.55e-07 M |
| CN1CCCNc2ccc(cn2)-c2ccnc(c2)Nc2cccc(c2)CN2CCN(CC2)CC1=O [Compound 69] | 1.41e-05 M | > 3.02e-05 M |
| CN1c2cccc(c2F)Nc2cc(ccn2)-c2cnc(nc2)N2CC(O)CC2CCNC(=O)C2(CC2)N2CCC1CC2 (centres unmarked) [Compound 105] |  | 7.94e-07 M |
| [N-]=[N+]=N[C@@H]1C[C@H]2CCNC(=O)CN3CCN(CC3)Cc3cccc(c3)Nc3cc(ccn3)-c3cnc(nc3)N2C1 [Compound 82] | 1.86e-08 M | 7.08e-07 M |
| O=C1CN2CCC(C2)Oc2cccc(c2)Nc2cc(ccn2)-c2cnc(nc2)NCCCN1 (centres unmarked) [Compound 93] | 7.94e-08 M | 6.31e-07 M |
| CN1c2cccc(c2)Nc2cc(ccn2)-c2cnc(nc2)NCCCNC(=O)C2(CC2)N2CCC1CC2 [Compound 102] | 8.13e-08 M | 1.32e-06 M |
